Measurements: patent US20080033057A1, “Hexahydro-isoalpha acid based protein kinase modulation cancer treatment” (Metaproteomics, LLC, priority 2006, published 2008)
Marks after values point to notes of the source that are not given here.

Legend:
[1] = test system: 3T3-L1 adipocytes; assay: Adiponectin secretion from LPS-treated 3T3-L1 adipocytes; format: cell-based, murine; conditions: for induction of adiponectin secretion: any of the doses tested
[2] = test system: 3T3-L1 adipocytes; assay: Lipogenesis (Oil Red O / BODIPY) in 3T3-L1 adipocytes; format: cell-based, murine; conditions: hops compounds 10, 5, 4 or 2 μg/ml; spent hops 50 μg/ml
Protocol: Prior to experiments, cells were cultured in DMEM containing 10% FBS-HI added 50 units penicillin/ml and 50 μg streptomycin/ml, and maintained in log phase prior to experimental setup. Cells were grown in a 5% CO2 humidified incubator at 37° C. Components of the pre-confluent medium included (1) 10% FBS/DMEM containing 4.5 g glucose/L; (2) 50 U/ml penicillin; and (3) 50 μg/ml streptomycin. Growth medium was made by adding 50 ml of heat inactivated FBS and 5 ml of penicillin/streptomycin to 500 ml DMEM. This medium was stored at 4° C. Before use, the medium was warmed to 37° C. in a water bath.
T3-T1 cells were seeded at an initial density of 6×10^4 cells/cm^2 in 24-well plates. For two days, the cells were allowed grow to reach confluence. Following confluence, the cells were forced to differentiate into adipocytes by the addition of differentiation medium; this medium consisted of (1) 10% FBS/DMEM (high glucose); (2) 0.5 mM methylisobutylxanthine; (3) 0.5 μM dexamethasone and (4) 10 μg/ml insulin (MDI medium). After three days, the medium was changed to post-differentiation medium consisting of 10 μg/ml insulin in 10% FBS/DMEM.
AcE was partially dissolved in dimethyl sulfoxide (DMSO) and added to the culture medium to achieve a concentration of 50 μg/ml at Day 0 of differentiation and throughout the maturation phase (Days 6 or 7 (D6/7)). […]
Oil Red O Staining—Triglyceride content of D6/D7-differentiated 3T3-L1 cells was estimated with Oil Red O according to the method of Kasturi and Joshi [Kasturi, R. and Joshi, V. C. […] The resulting stained oil droplets were extracted from the cells with isopropanol and quantified by spectrophotometric analysis at 540 nm (MEL312e BIO-KINETICS READER, Bio-Tek Instruments, Winooski, Vt.).
Briefly, media were removed and cells were washed once with non-sterile PBS. […] After 15 min on an orbital shaker (DS-500, VWR Scientific Products, South Plainfield, N.J.) at ambient temperature, the cells were washed with 100 μL PBS followed by the addition of 100 μl PBS for reading for spectrofluorometric determination of BODIPY incorporation into the cells. […]

[3] = test system: 3T3-L1 adipocytes; assay: Adiponectin secretion from insulin-resistant 3T3-L1 adipocytes; format: cell-based, murine
Protocol: 3T3-L1 cells were seeded at an initial density of 1×10^4 cells/cm^2 in 96-well plates. For two days, the cells were allowed grow to reach confluence. Following confluence, the cells were forced to differentiate into adipocytes by the addition of differentiation medium; this medium consisted of (1) 10% FBS/DMEM (high glucose); (2) 0.5 mM methylisobutylxanthine; (3) 0.5 μM dexamethasone and (4) 10 μg/ml insulin (MDI medium). From Day 3 through Day 5, the medium was changed to post-differentiation medium consisting of 10 μg/ml insulin in 10% FBS/DMEM.
Briefly, on Day 6, cells were maintained in serum-free media containing 0.5% bovine serum albumin (BSA) for three hours and then treated with 1 μg insulin/ml plus solvent or insulin plus test material. […] Twenty-four hours later, the supernatant medium was sampled for adiponectin determination.
Adiponectin Assay—The adiponectin secreted into the medium was quantified using the Mouse Adiponectin Quantikine® Immunoassay kit with no modifications (R&D Systems, Minneapolis, Minn.).
Statistical Calculations and Interpretation—All assays were preformed in duplicate. […] Differences between the doses were determined using the student's t-test without correction for multiple comparisons; the nominal five percent probability of a type I error was selected. […]

[4] = test system: 3T3-L1 adipocytes; assay: Adiponectin secretion from TNFα-treated 3T3-L1 adipocytes; format: cell-based, murine
Protocol: For two days, the cells were allowed grow to reach confluence. […] (3) 0.5 μM dexamethasone and (4) 10 μg/ml insulin (MDI medium). […] Adiponectin Assay—The adiponectin secreted into the medium was quantified using the Mouse Adiponectin Quantikine® Immunoassay kit with no modifications (R&D Systems, Minneapolis, Minn.). […] Statistical Calculations and Interpretation—All assays were preformed in duplicate. […] Differences among the doses and test agents were determined using the Student's t-test without correction for multiple comparisons; the nominal five percent probability of a type I error was selected.

[5] = test system: 3T3-L1 adipocytes; assay: IL-6 secretion from LPS-treated 3T3-L1 adipocytes; format: cell-based, murine; conditions: with 100 ng LPS/ml, D5 3T3-L1 adipocytes
[6] = Non-fasting serum glucose and insulin in db/db diabetic mice; format: in vivo, mouse
Protocol: The Model—Male, C57BLKS/J m^+/m^+ Lepr^db (db/db) mice were used to assess the potential of the test materials to reduce fasting serum glucose or insulin concentrations.
Testing Procedure—Test substances were administered daily by gavage in 0.2% Tween-80. Serum was collected from the retroorbital sinus before the initial dose and ninety minutes after the third and final dose. Non-fasting serum glucose was determined enzymatically by the mutarotase/glucose oxidase method and serum insulin was determined by a mouse specific ELISA.
The Model—Male, C57BLKS/J m+/m+Leprdb (db/db) mice were used to assess the potential of the test materials to reduce fasting serum glucose or insulin concentrations.
Testing Procedure—Test substances were administered daily by gavage in 0.2% Tween-80. […] Non-fasting serum glucose was determined enzymatically by the mutarotase/glucose oxidase method and serum insulin was determined by a mouse specific ELISA.

[7] = test system: A549 pulmonary epithelial cells; assay: PGE2 biosynthesis in A549 cells stimulated by mite dust allergen; format: cell-based, human; conditions: 10 μg/ml, mite allergen 1000 ng/ml
Protocol: The filtrate was termed mite dust allergen and used to test for induction of PGE2 biosynthesis in A549 pulmonary epithelial cells.
Mite allergen was added to the culture medium to achieve a final concentration of 1000 ng/ml. Eighteen hours later, the media were sampled for PGE2 determination.

Compound: CC(=O)Oc1ccccc1C(=O)O [Aspirin, aspirin]
- induction of adiponectin secretion ([1]; LPS 100 ng/ml): failed to induce adiponectin secretion

Compound: CC(C)CCC1=C(O)C(C(=O)C(C)C)=C(O)C(CCC(C)C)(CCC(C)C)C1=O [Hexahydro colupulone, hexahydrocolupulone]
- adipogenic (lipogenic) response compared with controls [2]: failed to elicit a lipogenic response greater than the solvent controls
- dose of maximal observed adiponectin secretion ([3]; four doses tested): 12.5 µg/mL

Compound: CC(C)CCC1=C(O)C(C(=O)C(C)C)=C(O)C(CCC(C)C)(CCC(C)C)C1=O [Hexahydrocolupulone (HHCL)]
- Adiponectin/IL-6 ([3]; 50.0 μg/ml, ratio of adiponectin index to IL-6 index, insulin-resistant 3T3-L1): 0.60#

Compound: COc1ccc2c(c1)c(CC(=O)O)c(C)n2C(=O)c1ccc(Cl)cc1 [Indomethacin, indomethacin]
- adiponectin secretion ([4]; 0.5 ng TNFα/ml): dose-dependant decrease in adiponectin secretion
- increase of adiponectin secretion in the presence of TNFα ([4]; 10 ng TNFα/ml, Example 16): 94%
- optimal concentration for adiponectin secretion ([4]; 10 ng TNFα/ml, Example 16): 2.5 µg/mL
- Adiponectin/IL-6 ([4]; 10 ng TNFα/ml, […]): 2.00*
- Concentration providing the maximum inhibition of IL-6 secretion [5]: 5.00 µg/mL
- maximum adiponectin stimulation ([1]; LPS 100 ng/ml, […]): 9%
- Concentration of maximum stimulation of adiponectin secretion ([1]; LPS-treated D5 3T3-L1 adipocytes): 2.50 µg/mL

Compound: CCc1ccc(CCOc2ccc(CC3SC(=O)NC3=O)cc2)nc1 (stereo not shown) [Pioglitazone, pioglitazone]
- optimal concentration for adiponectin secretion ([4]; 10 ng TNFα/ml, Example 16): 1.25 µg/mL
- Concentration of maximum adiponectin secretion over four doses ([4]; 10 ng TNFα/ml, Example 17): 1.25 µg/mL
- Concentration providing the maximum inhibition of IL-6 secretion [5]: 5.00 µg/mL

Compound: Cc1c(C)c2c(c(C)c1O)CCC(C)(COc1ccc(CC3SC(=O)NC3=O)cc1)O2 (stereo not shown) [Troglitazone, troglitazone]
- maximum increase of adiponectin secretion from the TNFα solvent control ([4]; 10 ng/ml TNFα): 51%
- Concentration providing the maximum inhibition of IL-6 secretion [5]: 10.0 µg/mL

Compound: COc1cc(O)c(CC=C(C)C)c(O)c1C(=O)/C=C/c1ccc(O)cc1 [Xanthohumol, xanthohumol]
- adipogenic (lipogenic) response compared with controls [2]: comparable to indomethacin and troglitazone

Compound: CN(C)C(=N)N=C(N)N [metformin]
- serum glucose relative to the controls ([6]; three consecutive days): decreased both serum glucose and insulin concentrations

Compound: CN(CCOc1ccc(CC2SC(=O)NC2=O)cc1)c1ccccn1 (stereo not shown) [rosiglitazone]
- Glucose [% Pretreatment] ([6]; db/db mice, non-fasting serum, 1.0 mg/kg-day by gavage, three days): 83.0# % Pretreatment

Compound: O=C(O)c1ccccc1O [salicylic acid]
- induction of adiponectin secretion ([1]; LPS 100 ng/ml): failed to induce adiponectin secretion

Compound: Beta acids
- Percent PGE2 Inhibition [7]: 83%
- adipogenic (lipogenic) response compared with controls [2]: comparable to indomethacin and troglitazone
